# Assay results taken from ChEMBL document CHEMBL4308853, “Design, Synthesis, and Pharmacological Evaluation of Novel β2/3 Subunit-Selective γ-Aminobutyric Acid Type A (GABAA) Receptor Modulators” (J Med Chem, 2018).
# Calls of active or inactive are those of the source.
# Columns and labels:
# [1] = molecular target: T1, GABA-A receptor; anion channel (Rattus norvegicus) (UniProt O09028+P15431+P18506+P18508+P19969+P20236+P23574+P23576+P28471+P28473+P30191+P62813+P63079+P63138+Q91ZM7+Q9ES14); assay: Positive allosteric modulation of GABA-A receptor in Sprague-Dawley rat primary hippocampal neurons assessed as channel-mediated tonic current at 30 uM pretreated for 300 secs followed by BMI addition for 10 secs at -70 mV holding potential by patch-clamp method (reference value: -63 pA); assay type: protein-complex assay
# [2] = molecular target: T2, GABA-A receptor; alpha-1/beta-3/gamma-2 (Homo sapiens, UniProt P14867+P18507+P28472); assay: Positive allosteric modulation of GABA-A alpha1beta3gamma2S receptor (unknown origin) expressed in Xenopus laevis oocytes assessed as increase in GABA-induced chloride current after 15 mins at -70 mV holding potential by two-microelectrode voltage clamp method; assay type: cell-based
# T2 sequence (P14867 whole entry): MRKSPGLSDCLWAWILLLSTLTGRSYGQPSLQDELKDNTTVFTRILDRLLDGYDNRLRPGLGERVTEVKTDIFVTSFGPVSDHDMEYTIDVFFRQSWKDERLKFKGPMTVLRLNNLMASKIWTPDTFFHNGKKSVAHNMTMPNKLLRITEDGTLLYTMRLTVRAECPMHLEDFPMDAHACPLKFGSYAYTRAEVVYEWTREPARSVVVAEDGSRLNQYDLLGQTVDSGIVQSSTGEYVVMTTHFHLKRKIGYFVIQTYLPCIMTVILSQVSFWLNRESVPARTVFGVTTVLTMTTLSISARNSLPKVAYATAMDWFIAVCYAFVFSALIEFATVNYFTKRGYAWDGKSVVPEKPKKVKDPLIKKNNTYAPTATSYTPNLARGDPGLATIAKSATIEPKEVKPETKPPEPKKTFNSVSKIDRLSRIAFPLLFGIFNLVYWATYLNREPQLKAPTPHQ
# T2 sequence (P18507 whole entry): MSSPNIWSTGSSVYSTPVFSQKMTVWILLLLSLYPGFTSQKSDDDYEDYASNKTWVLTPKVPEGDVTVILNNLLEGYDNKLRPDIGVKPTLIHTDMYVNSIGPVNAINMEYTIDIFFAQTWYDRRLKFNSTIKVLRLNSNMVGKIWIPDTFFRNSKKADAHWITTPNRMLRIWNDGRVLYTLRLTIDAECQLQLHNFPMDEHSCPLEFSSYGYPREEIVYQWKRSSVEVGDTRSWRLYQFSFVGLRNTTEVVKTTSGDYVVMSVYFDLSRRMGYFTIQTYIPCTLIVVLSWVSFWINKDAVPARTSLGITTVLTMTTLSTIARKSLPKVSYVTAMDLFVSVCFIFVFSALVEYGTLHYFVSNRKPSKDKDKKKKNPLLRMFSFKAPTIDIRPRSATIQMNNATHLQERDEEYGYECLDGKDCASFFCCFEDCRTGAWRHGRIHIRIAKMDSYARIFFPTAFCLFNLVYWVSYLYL
# T2 sequence (P28472 whole entry): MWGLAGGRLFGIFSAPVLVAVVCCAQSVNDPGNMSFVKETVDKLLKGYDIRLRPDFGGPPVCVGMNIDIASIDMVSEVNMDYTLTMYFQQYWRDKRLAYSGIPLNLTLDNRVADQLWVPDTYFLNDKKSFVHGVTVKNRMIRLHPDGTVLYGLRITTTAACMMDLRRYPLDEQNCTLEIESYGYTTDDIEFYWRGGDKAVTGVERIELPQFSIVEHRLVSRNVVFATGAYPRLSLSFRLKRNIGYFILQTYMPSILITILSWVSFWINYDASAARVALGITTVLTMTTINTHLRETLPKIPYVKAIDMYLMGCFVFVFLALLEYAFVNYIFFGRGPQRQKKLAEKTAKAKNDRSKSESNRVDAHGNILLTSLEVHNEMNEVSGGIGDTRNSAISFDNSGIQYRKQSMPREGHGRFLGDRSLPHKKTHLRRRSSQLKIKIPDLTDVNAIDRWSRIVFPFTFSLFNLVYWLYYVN
# [3] = system: Mus musculus; assay: Anticonvulsive activity in C57BL/6N mouse assessed as protection against 49 +/- 1.8 mg/kg pentylenetetrazole-induced seizures by measuring elevation in seizure threshold at 10 mg/kg, ip pretreated for 30 mins followed by pentylenetetrazole tail-vein infusion; assay type: functional, organism-based
# [4] = molecular target: T3, GABA-A receptor; alpha-1/beta-2/gamma-2 (Homo sapiens, UniProt P14867+P18507+P47870); assay: Positive allosteric modulation of GABA-A alpha1beta2gamma2S receptor (unknown origin) expressed in Xenopus laevis oocytes assessed as increase in GABA-induced chloride current after 15 mins at -70 mV holding potential by two-microelectrode voltage clamp method; assay type: cell-based
# T3 sequence (P14867 whole entry): T2 sequence (P14867 whole entry)
# T3 sequence (P47870 whole entry): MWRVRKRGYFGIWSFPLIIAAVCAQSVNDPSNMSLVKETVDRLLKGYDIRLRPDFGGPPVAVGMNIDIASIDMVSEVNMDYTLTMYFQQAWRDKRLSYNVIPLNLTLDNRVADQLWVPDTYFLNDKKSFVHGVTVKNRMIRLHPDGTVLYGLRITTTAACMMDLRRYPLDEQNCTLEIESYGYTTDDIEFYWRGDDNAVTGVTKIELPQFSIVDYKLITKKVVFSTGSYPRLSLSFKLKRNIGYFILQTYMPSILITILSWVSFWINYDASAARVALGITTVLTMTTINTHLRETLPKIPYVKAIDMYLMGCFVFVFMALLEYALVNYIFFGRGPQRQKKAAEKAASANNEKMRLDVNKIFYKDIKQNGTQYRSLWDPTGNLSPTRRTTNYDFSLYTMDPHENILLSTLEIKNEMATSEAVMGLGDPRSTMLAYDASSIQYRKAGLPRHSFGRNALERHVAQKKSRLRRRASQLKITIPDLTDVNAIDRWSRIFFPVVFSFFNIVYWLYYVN
# T3 sequence (P18507 whole entry): T2 sequence (P18507 whole entry)
# [5] = system: Mus musculus; assay: Anticonvulsive activity in C57BL/6N mouse assessed as protection against 39.5 +/- 0.8 mg/kg pentylenetetrazole-induced seizures by measuring elevation in seizure threshold at 0.1 to 0.3 mg/kg, ip pretreated for 30 mins followed by pentylenetetrazole tail-vein infusion; assay type: functional, organism-based
# [6] = molecular target: T1, GABA-A receptor; anion channel (Rattus norvegicus); assay: Positive allosteric modulation of GABA-A receptor in Sprague-Dawley rat primary hippocampal neurons assessed as miniature inhibitory postsynaptic current amplitude at 10 uM for 300 secs at -70 mV holding potential by patch-clamp method; assay type: protein-complex assay; set-up: scale not given: the % may be the effect or the level left
# [7] = molecular target: T4, GABA A receptor alpha-1/beta-1/gamma-2 (Homo sapiens, UniProt P14867+P18505+P18507); assay: Positive allosteric modulation of GABA-A alpha1beta1gamma2S receptor (unknown origin) expressed in Xenopus laevis oocytes assessed as increase in GABA-induced chloride current after 15 mins at -70 mV holding potential by two-microelectrode voltage clamp method; assay type: cell-based
# T4 sequence (P14867 whole entry): T2 sequence (P14867 whole entry)
# T4 sequence (P18507 whole entry): T2 sequence (P18507 whole entry)
# T4 sequence (P18505 whole entry): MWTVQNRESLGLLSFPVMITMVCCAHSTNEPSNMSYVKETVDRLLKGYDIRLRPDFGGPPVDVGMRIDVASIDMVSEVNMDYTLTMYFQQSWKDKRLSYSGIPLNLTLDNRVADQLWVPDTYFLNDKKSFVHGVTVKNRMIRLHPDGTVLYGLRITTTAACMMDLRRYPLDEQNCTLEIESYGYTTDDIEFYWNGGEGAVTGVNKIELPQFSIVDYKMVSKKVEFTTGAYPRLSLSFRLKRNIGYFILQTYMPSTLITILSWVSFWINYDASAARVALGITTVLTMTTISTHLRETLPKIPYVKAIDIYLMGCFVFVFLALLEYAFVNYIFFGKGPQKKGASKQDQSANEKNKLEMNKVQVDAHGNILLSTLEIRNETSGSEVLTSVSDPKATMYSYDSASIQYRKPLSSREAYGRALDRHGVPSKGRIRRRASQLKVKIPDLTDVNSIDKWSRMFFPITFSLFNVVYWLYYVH
# [8] = molecular target: GABA A receptor alpha-1/beta-1/gamma-2 (Homo sapiens, UniProt P14867+P18505+P18507, S290N); assay: Positive allosteric modulation of GABA-A alpha1beta1(S290N)gamma2S mutant receptor (unknown origin) expressed in Xenopus laevis oocytes assessed as increase in GABA-induced chloride current after 15 mins at -70 mV holding potential by two-microelectrode voltage clamp method; assay type: cell-based
# [9] = molecular target: T1, GABA-A receptor; anion channel (Rattus norvegicus); assay: Positive allosteric modulation of GABA-A receptor in Sprague-Dawley rat primary hippocampal neurons assessed as miniature inhibitory postsynaptic current mean frequency at 10 uM for 300 secs at -70 mV holding potential by patch-clamp method; assay type: protein-complex assay; set-up: scale not given: the % may be the effect or the level left
# [10] = molecular target: T5, Neuronal acetylcholine receptor; alpha4/beta2 (Homo sapiens) (UniProt P17787+P43681); assay: Negative allosteric modulation of alpha4beta2 nAChR (unknown origin) expressed in Xenopus laevis oocytes assessed as decrease in acetylcholine-induced channel current at 100 uM at -70 mV holding potential by two-microelectrode voltage clamp method relative to control; assay type: cell-based
# [11] = molecular target: T1, GABA-A receptor; anion channel (Rattus norvegicus); assay: Positive allosteric modulation of GABA-A receptor in Sprague-Dawley rat primary hippocampal neurons assessed as channel-mediated tonic current at 10 uM pretreated for 300 secs followed by BMI addition for 10 secs at -70 mV holding potential by patch-clamp method; assay type: protein-complex assay
# [12] = system: Oocyte; assay: Induction of current in Xenopus laevis oocytes at 10 to 100 uM after 5 mins by two-microelectrode voltage clamp method; assay type: cell-based
# [13] = molecular target: T1, GABA-A receptor; anion channel (Rattus norvegicus); assay: Positive allosteric modulation of GABA-A receptor in Sprague-Dawley rat primary hippocampal neurons assessed as increase in channel-mediated tonic current at 10 uM for 300 secs at -70 mV holding potential by patch-clamp method; assay type: protein-complex assay
# [14] = molecular target: GABA-A receptor; alpha-1/beta-3/gamma-2 (Homo sapiens, UniProt P14867+P18507+P28472, N265S); assay: Positive allosteric modulation of GABA-A alpha1beta3(N265S)gamma2S mutant receptor (unknown origin) expressed in Xenopus laevis oocytes assessed as increase in GABA-induced chloride current after 15 mins at -70 mV holding potential by two-microelectrode voltage clamp method; assay type: cell-based
# [15] = molecular target: T5, Neuronal acetylcholine receptor; alpha4/beta2 (Homo sapiens); assay: Positive allosteric modulation of alpha4beta2 nAChR (unknown origin) expressed in Xenopus laevis oocytes assessed as increase in acetylcholine-induced channel current at 10 to 100 uM at -70 mV holding potential by two-microelectrode voltage clamp method; assay type: cell-based
# [16] = molecular target: T4, GABA A receptor alpha-1/beta-1/gamma-2; assay: Positive allosteric modulation of GABA-A alpha1beta1gamma2S receptor (unknown origin) expressed in Xenopus laevis oocytes assessed as increase in GABA-induced chloride current at 300 uM after 15 mins at -70 mV holding potential by two-microelectrode voltage clamp method relative to control; assay type: cell-based; details: 0.25 h
# [17] = molecular target: Metabotropic glutamate receptor 2 (Homo sapiens) (UniProt Q14416); assay: Positive allosteric modulation of mGluR2 (unknown origin) expressed in Xenopus laevis oocytes assessed as increase in glutamate-induced channel current at 10 to 100 uM at -70 mV holding potential by two-microelectrode voltage clamp method; assay type: cell-based
# Chain of Metabotropic glutamate receptor 2 (Homo sapiens) (Q14416 19-872 limits assumed): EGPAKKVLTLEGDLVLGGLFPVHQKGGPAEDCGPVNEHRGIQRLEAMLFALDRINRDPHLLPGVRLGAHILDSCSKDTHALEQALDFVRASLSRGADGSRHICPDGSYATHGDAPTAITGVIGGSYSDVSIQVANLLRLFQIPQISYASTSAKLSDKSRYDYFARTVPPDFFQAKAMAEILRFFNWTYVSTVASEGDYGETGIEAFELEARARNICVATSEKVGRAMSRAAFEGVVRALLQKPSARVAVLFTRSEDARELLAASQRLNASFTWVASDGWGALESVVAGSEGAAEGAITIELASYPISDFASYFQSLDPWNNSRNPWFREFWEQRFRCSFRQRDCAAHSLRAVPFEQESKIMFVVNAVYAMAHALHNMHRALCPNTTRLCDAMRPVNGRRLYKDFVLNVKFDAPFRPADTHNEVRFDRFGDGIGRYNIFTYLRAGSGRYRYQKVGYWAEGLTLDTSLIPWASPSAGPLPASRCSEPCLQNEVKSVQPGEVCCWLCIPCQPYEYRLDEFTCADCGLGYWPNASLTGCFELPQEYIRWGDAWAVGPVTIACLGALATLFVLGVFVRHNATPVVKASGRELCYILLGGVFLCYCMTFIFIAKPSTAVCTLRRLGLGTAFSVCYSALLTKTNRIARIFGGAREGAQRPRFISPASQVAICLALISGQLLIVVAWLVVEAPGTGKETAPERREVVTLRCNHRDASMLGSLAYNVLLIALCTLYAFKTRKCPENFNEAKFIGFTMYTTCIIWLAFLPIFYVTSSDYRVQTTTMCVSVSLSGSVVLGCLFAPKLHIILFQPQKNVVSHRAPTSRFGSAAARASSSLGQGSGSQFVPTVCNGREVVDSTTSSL
# [18] = molecular target: Glutamate [NMDA] receptor (Homo sapiens) (UniProt Q05586+Q12879+Q13224+O15399+O60391+Q14957+Q8TCU5); assay: Positive allosteric modulation of NMDA receptor (unknown origin) expressed in Xenopus laevis oocytes assessed as increase in NMDA-induced channel current at 10 to 100 uM at -70 mV holding potential by two-microelectrode voltage clamp method; assay type: cell-based
# [19] = molecular target: Transient receptor potential cation channel subfamily V member 1 (Homo sapiens) (UniProt Q8NER1); assay: Agonist activity at TRPV1 receptor (unknown origin) expressed in Xenopus laevis oocytes assessed as increase in channel current at 10 to 100 uM at -70 mV holding potential by two-microelectrode voltage clamp method; assay type: cell-based
# Chain of Transient receptor potential cation channel subfamily V member 1 (Homo sapiens) (Q8NER1 whole entry): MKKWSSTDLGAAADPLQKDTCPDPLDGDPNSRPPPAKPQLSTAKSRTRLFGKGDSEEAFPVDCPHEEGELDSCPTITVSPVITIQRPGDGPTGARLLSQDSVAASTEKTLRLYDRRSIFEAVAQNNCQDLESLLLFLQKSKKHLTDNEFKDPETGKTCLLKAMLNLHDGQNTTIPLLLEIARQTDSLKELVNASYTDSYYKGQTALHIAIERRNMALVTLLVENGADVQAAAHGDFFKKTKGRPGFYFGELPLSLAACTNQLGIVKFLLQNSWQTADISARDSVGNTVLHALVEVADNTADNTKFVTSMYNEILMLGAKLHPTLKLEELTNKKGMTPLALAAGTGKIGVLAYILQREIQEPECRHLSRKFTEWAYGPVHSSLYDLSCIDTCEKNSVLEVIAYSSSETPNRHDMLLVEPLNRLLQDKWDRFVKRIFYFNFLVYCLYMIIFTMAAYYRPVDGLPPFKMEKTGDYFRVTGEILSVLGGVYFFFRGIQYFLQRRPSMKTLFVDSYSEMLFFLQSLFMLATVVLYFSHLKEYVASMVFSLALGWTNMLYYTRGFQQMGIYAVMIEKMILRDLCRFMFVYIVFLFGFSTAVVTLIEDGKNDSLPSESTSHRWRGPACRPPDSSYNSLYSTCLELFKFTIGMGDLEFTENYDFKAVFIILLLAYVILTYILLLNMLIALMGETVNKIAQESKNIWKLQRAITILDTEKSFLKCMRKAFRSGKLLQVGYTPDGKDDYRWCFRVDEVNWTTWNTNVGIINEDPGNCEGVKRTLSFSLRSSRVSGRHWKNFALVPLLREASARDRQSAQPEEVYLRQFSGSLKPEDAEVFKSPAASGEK
# [20] = molecular target: T1, GABA-A receptor; anion channel (Rattus norvegicus); assay: Positive allosteric modulation of GABA-A receptor in Sprague-Dawley rat primary hippocampal neurons assessed as prolongation of miniature inhibitory postsynaptic current decay time at 10 uM for 300 secs at -70 mV holding potential by patch-clamp method; assay type: protein-complex assay; set-up: scale not given: the % may be the effect or the level left
# [21] = molecular target: GABA-A receptor; alpha-1/beta-3/gamma-2 (Homo sapiens, UniProt P14867+P18507+P28472, F289S); assay: Positive allosteric modulation of GABA-A alpha1beta3(F289S)gamma2S mutant receptor (unknown origin) expressed in Xenopus laevis oocytes assessed as increase in GABA-induced chloride current after 15 mins at -70 mV holding potential by two-microelectrode voltage clamp method; assay type: cell-based
# [22] = system: Mus musculus; assay: Anticonvulsive activity in C57BL/6N mouse assessed as protection against 52.6 +/- 2.1 mg/kg pentylenetetrazole-induced seizures by measuring elevation in seizure threshold at 0.3 mg/kg, ip pretreated for 30 mins followed by pentylenetetrazole tail-vein infusion; assay type: functional, organism-based
compound,measurement,setting,value
CC1=C2[C@H](/C=C(\C)C(=O)O)CC[C@@H](C)[C@H]2CC1 [VALERENIC ACID],Activity,[1],-115 pA
same,EC50,[2],19 µM
same,Activity,[3],Active
C/C(=C(/C#N)C(N)=O)c1ccc(Cl)cc1Cl,EC50,[4],64 µM
same,EC50,[2],55 µM
C/C(=C\C#N)c1ccc(Cl)cc1Cl,EC50,[2],100 µM
C/C(=C/C#N)c1ccc(Cl)cc1Cl,Activity,[5],Active
same,Activity,[6],97%
same,EC50,[7],148 µM
same,EC50,[8],10 µM
same,Activity,[9],78%
same,EC50,[4],15 µM
same,inhibition,[10],70%
same,Activity,[11],-38 pA
same,Activity,[12],Non-Toxic
same,Activity,[13],Active
same,EC50,[14],103 µM
same,Activity,[15],inactive
same,Emax at 300 µM,[16],883%
same,Activity,[17],inactive
same,Activity,[18],inactive
same,Activity,[19],inactive
same,EC50,[2],13 µM
same,Activity,[20],213%
same,EC50,[21],171 µM
same,Activity,[22],Active
Cl/C(=C\n1cncn1)c1ccc(Cl)cc1Cl [LORECLEZOLE],EC50,[2],11 µM
C/C(C#N)=C\c1ccc(C)cc1Cl,EC50,[2],44 µM
